Reference: PMC12434521, “Characterization of Next-Generation Inhibitors for the Inward-Rectifier Potassium Channel Kir2.1: Discovery of VU6080824” (ACS Medicinal Chemistry Letters, 2025)

Molecular target: T1, human Kir2.1 (Homo sapiens, UniProt P63252)
T1 construct: expressed in transfected cells
T1 sequence (P63252 1-427): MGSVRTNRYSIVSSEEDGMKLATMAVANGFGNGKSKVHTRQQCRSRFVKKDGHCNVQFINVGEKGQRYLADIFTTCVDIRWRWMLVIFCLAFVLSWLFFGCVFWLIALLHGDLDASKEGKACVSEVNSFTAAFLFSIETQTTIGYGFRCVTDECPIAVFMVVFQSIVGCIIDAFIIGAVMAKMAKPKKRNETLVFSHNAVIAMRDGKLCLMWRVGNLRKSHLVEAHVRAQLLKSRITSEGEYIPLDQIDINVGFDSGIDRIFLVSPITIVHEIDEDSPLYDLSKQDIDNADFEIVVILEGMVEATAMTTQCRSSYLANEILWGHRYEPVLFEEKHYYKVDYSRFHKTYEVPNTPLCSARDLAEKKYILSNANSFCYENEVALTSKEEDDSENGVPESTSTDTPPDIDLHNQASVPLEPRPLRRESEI
Assay: Kir2.1 thallium flux assay
Format: cell-based
Conditions: for IC50 / Thallium Flux Potency IC50: T-REx-HEK-293 cells expressing human Kir2.1, 4PL fit, top concentration 30 μM; for IC50: read-out: Thallium Flux Potency IC50; for inhibition at 30 µM: compounds not fitting 4PL (> 10 μM): value at 30 μM relative to 30 μM ML133, read-out: Thallium Flux Efficacy (% Inhibition), 30 μM measured value; for Thallium Flux Efficacy (% Inhibition) / Emax: efficacy from 4PL fit, relative to ML133; for Emax: read-out: Thallium Flux Efficacy (% Inhibition)
Description: Thallium Flux Assay Experimental Conditions
The Tl+ flux assays were conducted as previously described with modifications optimized for Kir2.1 cell line as described below.1
Briefly, stable T-REx-HEK-293 cells expressing human K ir2.1 were cultured in DMEM growth medium (Catalog #11965-092, Gibco, Billings, MT) containing 10% heat-inactivated FBS (Catalog #16140, Gibco), 100 U/mL PenStrep, 5 μg/mL Blasticidin S, and 250 μg/mL Hygromycin.
The day prior to the experiment, cells at ~90% confluency were resuspended in plating media, which consisted of the same components as the growth media, except that heat-inactivated FBS was replaced with dialyzed FBS (Catalog #26400, Gibco). Tetracycline was added to the plating media to achieve a final concentration of 1 μg/ml to induce hKir2.1 expression. Cells were then counted and plated at 15,000 cells/well in black-walled, amine- or PDL- coated, 384-well plates at 20 μl/well (Corning, Corning, NY). On the day of experiment, the media was removed from the cell plate and replaced with 20 μl/well of Tl+-sensitive dye loading solution containing 2.5 μg/ml Thallos-AM (Catalog #11000-050, ION Biosciences, San Marcos, TX) in assay buffer using a Multidrop Combi dispenser (Thermo Fisher Scientific, Walkham, MA). Cell plates loaded with dye solution were incubated for 1 hour at room temperature. Following incubation, the cell plate was washed with HBSS assay buffer containing 20 mM HEPES using a BioTek ELx 405 TS plate washer (Agilent, Santa Clara, CA), leaving 20 μl of assay buffer in each well. The cell plate was then transferred to a Panoptic kinetic imaging plate reader (WaveFront Biosciences, Franklin, TN) for imaging at 1 Hz, 482/35 nm excitation and 536/40 nm emission for 10 seconds. Following this, 20 μl/well of HBSS assay buffer containing test compounds at 2-fold over their final concentrations were added and imaging continued for another eight minutes, after which 10 μl/well of chloride-free Tl+ stimulus solution was added (Catalog #11000-050, ION Biosciences). The final Tl2SO4 concentration in cell plate post-Tl+ stimulus solution addition was 0.25 mM. Images were collected for an additional two minutes. A ten-point concentration series from 30 μM to 2 nM with a 1:3 dilution factor was generated using an Echo liquid handler 650 (Labcyte, San Jose, CA). Final DMSO concentration, 0.3% (v/v) in the assay was constant across all compound concentrations.
The initial slopes of the Tl+-induced fluorescence changes were fit to a four-parameter logistic equation using our in-house software Waveguide to determine potency and efficacy values. […]
Bauer, J. A.; Days, E. L.; Lindsley, C. […]

SMILES | IC50 [µM] | inhibition at 30 µM [%] | Thallium Flux Potency IC50 | Thallium Flux Efficacy (% Inhibition) | Emax [%]
COc1ccc(CNCc2ccc(-c3ccccn3)cc2)cc1 [Compound 5l] | > 10 | 90 | – | – | –
Cc1cc(C)n(-c2ccc(CNCc3cccc4ccccc34)cc2)n1 [Compound 3e] | > 10 | 50 | – | – | –
COc1ccc(CNCc2cccc3c2OC(F)(F)O3)cc1 [Compound 5g] | – | – | inactive | inactive | –
O=S1(=O)CCCN1c1ccc(CNCc2cccc3ccccc23)cc1 [Compound 3k] | – | – | inactive | inactive | –
COc1ccc(CNCc2ccc(-c3ccc(F)cc3)cc2)cc1 [Compound 5q] | 9.3 | – | – | – | 99
N#Cc1ccc(CNCc2cccc3ccccc23)cc1 [Compound 3b] | > 10 | 88 | – | – | –
COCCOc1ccc(CNCc2cccc3ccccc23)cc1 [Compound 3j] | – | – | inactive | inactive | –
COc1ccc(CNCc2ccc(N3CCCC3)cc2)cc1 [Compound 5v] | > 10 | 96 | – | – | –
COc1ccc(CNCc2cccc3cnccc23)cc1 [Compound 5c] | > 10 | 45 | – | – | –
COc1ccc(CNCc2ccnc3ccccc23)cc1 [Compound 5e] | > 10 | 75 | – | – | –
COc1ccc(CNCc2ccc(N3CCCCC3)cc2)cc1 [Compound 5w] | > 10 | 53 | – | – | –
FS(F)(F)(F)(F)c1ccc(CNCc2cccc3ccccc23)cc1 [Compound 3c] | – | – | inactive | inactive | –
COc1ccc(CNCc2nccc3ccccc23)cc1 [Compound 5a] | – | – | inactive | inactive | –
OCc1ccc(CNCc2cccc3ccccc23)cc1 [Compound 3f] | – | – | inactive | inactive | –
COc1ccc(CNCc2cccn3ccnc23)cc1 [Compound 5f] | – | – | inactive | inactive | –
COc1ccc(CNCc2ccc(-c3ccncc3)cc2)cc1 [Compound 5n] | 12.5 | – | – | – | 98
COc1ccc(CNCc2ccc(-c3cccnc3)cc2)cc1 [Compound 5m] | 10.8 | – | – | – | 98
COc1ccc(CNCc2ccc(N3CCCCCC3)cc2)cc1 [Compound 5x] | > 10 | 46 | – | – | –
O=C1CCCN1c1ccc(CNCc2cccc3ccccc23)cc1 [Compound 3d] | – | – | inactive | inactive | –
COc1ccc(CNCc2ccc(N3CCOCC3)cc2)cc1 [Compound 5y] | – | – | inactive | inactive | –
c1ccc2c(c1)CN(Cc1cccc3ccccc13)CCO2 [Compound 3h] | – | – | inactive | inactive | –
FC(F)Oc1ccc(CNCc2cccc3ccccc23)cc1 [Compound 3a] | > 10 | 45 | – | – | –
COc1ccc(CNCc2ccc(-c3ccccc3F)cc2)cc1 [Compound 5o] | 10.7 | – | – | – | 102
COc1ccc(CNCc2cccc3ncccc23)cc1 [Compound 5d] | – | – | inactive | inactive | –
COc1ccc(CNCc2ccc(-c3cnn(C)c3)cc2)cc1 [Compound 5u] | – | – | inactive | inactive | –
COc1ccc2c(c1)CCN(Cc1cccc3ccccc13)C2 [Compound 3g] | – | – | inactive | inactive | –
COc1ccc(CNCc2ccc(N3CCCCS3(=O)=O)cc2)cc1 [Compound 5z] | – | – | inactive | inactive | –
CP(C)(=O)c1ccc(CNCc2cccc3ccccc23)cc1 [Compound 3l] | – | – | inactive | inactive | –
